Measured values taken from patent US4701456A, “Aminoalkoxybenzopyranones as antipsychotic and anxiolytic agents” (Warner-Lambert Company, priority 1985, dated 1987).
Where two headings read alike, the source gives them in different places. Each block holds one compound with its values, some of them ahead of it.

Legend:
Swiss-Webster male mice = test: Mouse Activity and Screen Test Procedure (MAST); assay type: in vivo; conditions: ip, 1 h, intraperitoneal, one hour prior to testing, active = rating A at 100 mg/kg or less, read-out: Dose at which an overall dose rating of A was obtained
Excerpt: The compounds of the present invention are new chemical substances which are useful as pharmaceutical agents for the treatment of psychoses such as, for example, schizophrenia. The antipsychotic activity of representative compounds of the invention was established by the Mouse Activity and Screen Test Procedure (MAST) described below:
ANIMALS: Nine unfasted Swiss-Webster male mice (Buckberg Labs) weighing 20-30 g are equally divided into three groups for each drug dose to be tested. That is, data for each dose level was generated by three separate groups of three mice each.
DRUGS: A minimum of three dose levels (10, 30, and 100 mg/kg) are tested for each drug. Treatments are administered intraperitoneally one hour prior to testing. All dosages are calculated as parent compound and given in volumes of […]. Compounds are dissolved or suspended in 0.2% Methocel. Control animals are injected with Methocel.
TESTING: A two-part testing procedure is started one hour postinjection. First, the screen test is performed (see Pharmac Biochem Behav 6, 351-353, 1977). Briefly, this test consists of placing mice on individual wire screens which are then rotated 180° at the start of a 60-second observation period. The number of mice falling off the inverted screen is recorded.
Immediately following the screen test, the final phase of testing is initiated by placing each group of three mice in one actophotometer (Life Sciences, 22, 1067-1076, 1978). The actophotometer consists of a cylindrical chamber whose center is occupied by another cylinder which contains the illumination for six photocells located on the perimeter of the chamber. Six light-beam interruptions equal one count. Locomotor activity is recorded by computer at ten-minute intervals for 60 minutes.
DATA: The data obtained from the screen test are expressed as percent of mice falling off the screen. Data derived from locomotor activity of drug-treated mice are compared to the activity of vehicle-treated animals and are expressed as percent inhibition of spontaneous locomotion. All percentages reported for inhibition of locomotion are based upon data accumulated for one hour. Both phases of testing are graded: A=60-100%; C=31-59%; and N=0-30%. An overall dose rating is obtained by the following criteria. […]
______________________________________
Inhibition of Screen Test Dose
Locomotion rating with Failure Rating
Utilizing this procedure, an overall dose rating of A was obtained for the noted compounds at the indicated dose as reported in Table 1.

dopamine receptors = dopamine receptors (Rattus norvegicus, UniProt P61169); test: [3H] haloperidol binding assay (HRBA); set-up: species or system Long-Evans hooded rats; conditions: displacement of [3H] haloperidol (0.6 nM), rat striatal membranes, pH 7.6, 25° C., 40 minutes
Chain of dopamine receptors (P61169 whole entry): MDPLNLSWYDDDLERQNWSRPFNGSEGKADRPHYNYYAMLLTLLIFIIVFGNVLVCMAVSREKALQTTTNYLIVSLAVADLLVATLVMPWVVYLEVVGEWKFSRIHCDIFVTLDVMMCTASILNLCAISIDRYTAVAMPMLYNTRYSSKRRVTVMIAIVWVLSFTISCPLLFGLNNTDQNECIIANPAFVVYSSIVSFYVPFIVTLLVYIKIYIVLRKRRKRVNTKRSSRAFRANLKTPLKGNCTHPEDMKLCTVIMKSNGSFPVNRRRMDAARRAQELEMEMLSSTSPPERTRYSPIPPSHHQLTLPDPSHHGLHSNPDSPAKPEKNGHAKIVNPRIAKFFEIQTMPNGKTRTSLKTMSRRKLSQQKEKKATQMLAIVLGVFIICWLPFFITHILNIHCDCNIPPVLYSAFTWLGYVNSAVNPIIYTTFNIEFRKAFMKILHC
Description: [^3 H] Haloperidol Binding Assay. The relative affinities of compounds for dopamine receptors were evaluated on the basis of their ability to displace [^3 H] haloperidol from striatal membranes prepared from Long-Evans hooded rats. Rats were decapitated; the brains were removed, and the corpus striata were dissected. The corpus striata were homogenized in 40 volumes of […] Tris buffer (pH 7.6) and centrifuged. Pellets were rehomogenized in 50 volumes of the same buffer and used for the binding assay. Incubations were carried out in 10 ml of […] Tris-HCl buffer (pH 7.6) containing 2 mg/ml of original wet tissue weight of homogenate, 100 μl of test agent or solvent, and 0.6 nM of [^3 H] haloperidol. Nonspecific binding was determined in the presence of 0.1 μM (+)-butaclamol. Samples were incubated in reciprocating water bath at 25° C. for 40 minutes. Incubation was terminated by rapid filtration under reduced pressure through glass fiber filters (Whatman GF/B). The filters were rinsed three times with 10 ml of Tris-HCl buffer. The filters were placed in 10 ml of scintillation coctail (Beckman Ready-Solv HP) and shaken for one hour. Radioactivity retained on the filter was determined by liquid scintillation spectrophotometry. Compounds were initially evaluated at 10 nM. IC50 s when determined were calculated from a nonlinear computer curve, fit on the data from four or more concentrations, each done in triplicate.

[1] = tested on: mature male hooded rats (Long-Evans strain); test: animal model of anxiety based on the Geller-Seifter conflict test; assay type: in vivo; conditions: for Total Punished Responses, Test: four rats
Excerpt: The compounds of the present invention are new chemical substances which are also useful as pharmaceutical agents for the treatment of anxiety, i.e., anxiolytic agents. The antianxiety activity of a representative compound showing such activity for the compounds of the Formula I of the present invention is established by the use of an animal model of anxiety based on the Geller-Seifter conflict test described in Psychopharmacologia 1:482 (1960). Particularly the test follows initial shaping of response, an experimental conflict is induced, with animals trained until stable performance is established. Each animal serves as his own control. A description of the test is as follows:
Subjects: Mature male hooded rats (Long-Evans strain) 300-350 g body weight.
Apparatus: The experimental chamber consists of an inner test compartment with a lever mounted in one wall, a grid floor, an automatic feeding device, and a speaker. This chamber is enclosed by a sound insulated cubicle. Shock is provided by a LVE Model 1531 Constant Current SHocker. White (masking) noise is supplied by a LVE Model 1524 Noise Generator. A tone is produced by a LVE Model 1664 4.5 KC Tone Generator. All events and recordings are automatic and are programmed with appropriate electric timers and relay devices.
Procedure: Variable interval (VI)=two-minute; trial periods=four; shock=0.6 to 0.8 ma; food reward=Borden's Sweetened Condensed Milk diluted two parts water to one part milk; animals are deprived to 70% of their free feeding weight and are 23 hours starved; session length=one hour and 12 minutes.
The conflict is induced in the following manner: hungry rats are conditioned to press a lever to obtain a food reward. Reinforcement is contingent upon a lever press and occurs at variable intervals on the average of once every two minutes--VI two-minute (See Ferster; C. B., and Skinner, B. F., "In Schedules of Reinforcement, " Appleton-Century-Crofts,New York, 1957).
Spaced at regular intervals throughout the experimental session are four three-minute periods. During these trial periods a tone signals that every lever press will be food reinforced (CRF) and simultaneously punished by a painful electric foot shock.
In other words, food-deprived rats are trained to depress a lever in order to obtain food (sweetened condensed milk). Normally, the rats perform on a variable interval (VI) schedule on which a lever press results in food delivery on the average of once every two minutes; the time between successive periods of food availability is varied continuously such that animals respond at low but steady rates to obtain occasional access to food. After animals perform for 12 minutes on this schedule the house lights are extinguished and two small stimulus lights are illuminated, signaling the availability of food for each depression of the lever during a three minute trial period. During the trial, each depression of the lever also results in the delivery of mild electric shock (0.8 ma, 0.25 second duration) delivered through the grid floor (punishment). Thus, an approach-avoidance conflict is established with associated anxiety: food is readily available for each response, but each respone is punished (see Miller, N. E., "Some Recent Studies of Conflict Behavior and Drugs," Am. Pharmacologist, 16: 12, 1961). The scheduled used in our test employed four successive trials, each preceded by a 12-minute period during which the food-reinforced VI was in effect.
During sessions in which no drug is administered, rats normally respond at steady rates on the VI component but emit very few responses during the punished trial period.
The total number of punished responses made by the four subjects in the pretest and test sessions for the noted compound are as follows.
The pretest responses are cummulative responses emitted during the three minute tests from a previous nondrug session. […]

SMILES: Cc1cc(=O)oc2cc(OCCCN3CCN(c4ccccc4)CC3)ccc12 [drawing 16]
minimal effective dose (Swiss-Webster male mice): 1 mg/kg

SMILES: CSc1ccc2c(c1)N(CCC1CCCCN1C)c1ccccc1S2 (stereo not drawn) [Thioridazine, reference compound]
minimal effective dose (Swiss-Webster male mice): 10 mg/kg

SMILES: Cc1cc(=O)oc2cc(OCCCN3CCN(c4ccccc4)CC3)ccc12 [drawing 21]
IC50 (dopamine receptors): 50 nM

IC50 (dopamine receptors; read-out: IC50): 930 nM
SMILES: O=c1ccc2ccc(OCCCN3CCN(c4ncccn4)CC3)cc2o1 [drawing 22]

SMILES: O=c1ccc2ccc(OCCCN3CC=C(c4ccccc4)CC3)cc2o1 [drawing 23]
IC50 (dopamine receptors): 16 nM

SMILES: O=c1ccc2ccc(OCCCN3CC=C(c4ccccc4)CC3)cc2o1 [drawing 18]
minimal effective dose (Swiss-Webster male mice): 1 mg/kg

SMILES: O=c1ccc2ccc(OCCCN3CCN(c4ncccn4)CC3)cc2o1 [7-[3-[4-(2-pyrimidinyl)-1-piperazinyl]propoxy]-2H-1-benzopyran-2-one]
responding during trial periods ([1]; 27.5 mg/kg PO (no increase)): not at 27.5 mg/kg PO
Total Punished Responses, Test ([1]; 27.5 mg/kg PO, Pretest (nondrug session) 39): 44
Total Punished Responses, Test ([1]; 55 mg/kg PO, Pretest (nondrug session) 78): 147
rats with increases in punished responding ([1]; 80 mg/kg): four of four rats
Total Punished Responses, Test ([1]; 80 mg/kg PO, Pretest (nondrug session) 23): 77
rats with increases in punished responding [1]; 55: three of four rats
gross sedation ([1]; 55 and 80 mg/kg PO): notable absence of gross sedation
responding during trial periods ([1]; 55 and 80 mg/kg PO): increased responding during trial periods
responding during the VI component ([1]; 55 and 80 mg/kg PO, unpunished responding): not accompanied by decreased responding during the VI component

IC50 (dopamine receptors; read-out: IC50): 15 nM
SMILES: O=c1ccc2ccc(OCCCN3CCN(c4ccccc4)CC3)cc2o1 [drawing 20]

SMILES: O=c1ccc2ccc(OCCCN3CCN(c4ccccc4)CC3)cc2o1 [drawing 15]
minimal effective dose (Swiss-Webster male mice): 3 mg/kg

SMILES: O=c1ccc2ccc(OCCCN3CCN(c4ncccn4)CC3)cc2o1 [drawing 17]
minimal effective dose (Swiss-Webster male mice): 3 mg/kg
